Test results taken from PMC10831936 (iScience, 2024).
Several values for one entry are separate records, joined by “and”; a condition that tells them apart may be missing. Equal entries are not always repeated. Structures can show the parent of a compound that is named as a salt. Where two headings read alike, the source gives them in different places. Blank lines part the entries; values can stand above or below the molecule they belong to.

What was measured:
[1] = test system: ERBB receptors, HTR2A, and downstream signaling pathways; assay: ERBBprofiler multiplexed barcoded assay, overall statements across all receptor batches and sensors; conditions: PC12 cells, stimulation mix
NFAT (HTR2A) = assay: NFAT pathway sensor luciferase assay, HTR2A transfected; format: cell-based, Rattus norvegicus; conditions: agonist dose response, PC12 cells, luciferase readout
Method: (§1) 50,000 PC12 cells were seeded per 96-well onto poly-L-lysin (PLL)-coated plates and transfected the following day (day in vitro 1, DIV1) with assay plasmids using Lipofectamine 3000 (Thermo Fisher Scientific). For split TEV assays, plasmids (pcDNA3 or pTag4C backbone) encoding receptor-NTEV-tcs-GV, GRB2-SH2-CTEV (for ERBB receptors) or ARBB2-1-383-CTEV (for HTR2A) (all 10 ng/well), and the p10xUAS-luc2 reporter plasmid (10 ng/well) were used. For pathway assays, the receptor plasmids (15 ng/well) and pathway reporter plasmids (15 ng/well) pEGR1p-luc2 for monitoring MAPK signaling, pCRE-CMVmin-luc2 for monitoring cAMP/Ca^2+ signaling, or p6xNFAT-CMVmin-luc2 for Ca^2+ signaling were used. Transient transfections were conducted according to the manufacturer’s instructions. On DIV2, cells were starved in medium containing 1% FCS for 16 h. […] In the case of antagonist assays, compounds were added at increasing doses together with the stimulus. Cells were lysed in 1x passive lysis buffer (Promega) and subjected to a firefly luciferase assay using a self-made substrate for firefly luciferase.[100] Luciferase activity was analyzed in a Mithras LB 940 Multimode Microplate Reader (Berthold Technologies). All assays were run in 96-well plates using six replicates per condition.

HTR2A CRE = assay: ERBBprofiler barcoded CRE pathway sensor, HTR2A co-transfected; conditions: read-out: CRE (HTR2A) activity EC50 (barcode); agonist dose response, PC12 cells, HTR2A co-transfected, barcode readout
CRE (HTR2A) = assay: CRE pathway sensor luciferase assay, HTR2A transfected; format: cell-based, Rattus norvegicus; conditions: agonist dose response, PC12 cells, luciferase readout
Method: as §1

HTR2A NFAT = assay: ERBBprofiler barcoded NFAT pathway sensor, HTR2A co-transfected; conditions: for IC50: Rattus norvegicus, PC-12, 6 h, read-out: HTR2A NFAT IC50
[2] = test system: CRE (cAMP/Ca2+ signaling); assay: ERBBprofiler barcoded CRE sensor only (no receptor transfected); conditions: Rattus norvegicus, PC-12, read-out: CRE EC50 (barcode)
ERBB4 NFAT = assay: ERBBprofiler barcoded NFAT pathway sensor, ERBB4 co-transfected; format: cell-based, Rattus norvegicus
ERBB4 [3] = conditions: read-out: IC50_Literature, ERBB4; cell viability overexpressing ERBB4 variants; ref Chakroborty et al., 2022; cited from earlier work
ERBB4 EGR1p = assay: ERBBprofiler barcoded EGR1p pathway sensor, ERBB4 co-transfected; conditions: for IC50: Rattus norvegicus, PC-12, 6 h, read-out: ERBB4 EGR1p IC50; for EGR1p (ERBB4) activity EC50 (barcode): agonist dose response, PC12 cells, ERBB4 co-transfected, barcode readout
ERBB2 [4] = test system: ERBB2; parameters: method as in Schaefer et al., 2007; conditions: phospho-WB in NR6 cells; ref Schaefer et al., 2007; read-out: IC50_Literature, ERBB2; cited from earlier work
ERBB2/3 EGR1p = assay: ERBBprofiler barcoded EGR1p pathway sensor, ERBB2/3 co-transfected; conditions: read-out: ERBB2/3 EGR1p IC50
ERK (MAPK) = test system: ERK (MAPK); parameters: method as in Schaefer et al., 2007; conditions: phospho-WB in NR6 cells; ref Schaefer et al., 2007; read-out: IC50_Literature, ERK (MAPK); cited from earlier work
[5] = biological target: EGR1p (MAPK/ERK signaling); assay: ERBBprofiler barcoded EGR1p sensor only (no receptor transfected); conditions: agonist dose response, PC12 cells, barcode readout
[6] = biological target: EGR1p (MAPK signaling), EGFR; assay: EGR1p pathway sensor luciferase assay, EGFR; format: cell-based, Rattus norvegicus; conditions: agonist dose response, PC12 cells, luciferase readout
Method: as §1

EGR1p (ERBB4) = assay: EGR1p pathway sensor luciferase assay, ERBB4 transfected; format: cell-based, Rattus norvegicus; conditions: agonist dose response, PC12 cells, luciferase readout
Method: as §1

cAMP = assay: GloSensor cAMP assay in PC12 cells; format: cell-based, Rattus norvegicus; conditions: Rattus norvegicus, PC-12, 0.25 h, constant stimulation mix, 15 min, cAMP increase
EGFR [7] = conditions: read-out: IC50_Literature, EGFR; phospho-WB in Cos 7 cells; ref Floc'h et al., 2020; cited from earlier work
CRE sensor = CRE sensor only luciferase assay in PC12 cells; format: cell-based, Rattus norvegicus
HTR2A EGR1p = assay: ERBBprofiler barcoded EGR1p pathway sensor, HTR2A co-transfected; conditions: read-out: HTR2A EGR1p IC50
calcium = assay: Fluo-4 AM calcium assay in PC12 cells; format: cell-based, Rattus norvegicus; conditions: stimulation mix
ERBB2 [8] = test system: ERBB2; parameters: method as in La Monica et al., 2017; conditions: phospho-WB in PC9/HER2c1 cells; ref La Monica et al., 2017; read-out: IC50_Literature, ERBB2; cited from earlier work
EGFR NFAT = assay: ERBBprofiler barcoded NFAT pathway sensor, EGFR co-transfected; format: cell-based, Rattus norvegicus
ERBB4 [9] = test system: ERBB4; parameters: method as in Cross et al., 2014; conditions: commercial biochemical kinome panel (Millipore); ref Cross et al., 2014; read-out: IC50_Literature, ERBB4; cited from earlier work
EGFR EGR1p = assay: ERBBprofiler barcoded EGR1p pathway sensor, EGFR co-transfected; conditions: read-out: EGFR EGR1p IC50
EGFR CRE = assay: ERBBprofiler barcoded CRE pathway sensor, EGFR co-transfected; conditions: Rattus norvegicus, PC-12, 6 h, read-out: EGFR CRE IC50
EGFR [10] = biological target: EGFR (Homo sapiens, UniProt P00533); assay: ERBBprofiler barcoded split TEV assay, EGFR
EGFR, sequence (P00533 25-1210): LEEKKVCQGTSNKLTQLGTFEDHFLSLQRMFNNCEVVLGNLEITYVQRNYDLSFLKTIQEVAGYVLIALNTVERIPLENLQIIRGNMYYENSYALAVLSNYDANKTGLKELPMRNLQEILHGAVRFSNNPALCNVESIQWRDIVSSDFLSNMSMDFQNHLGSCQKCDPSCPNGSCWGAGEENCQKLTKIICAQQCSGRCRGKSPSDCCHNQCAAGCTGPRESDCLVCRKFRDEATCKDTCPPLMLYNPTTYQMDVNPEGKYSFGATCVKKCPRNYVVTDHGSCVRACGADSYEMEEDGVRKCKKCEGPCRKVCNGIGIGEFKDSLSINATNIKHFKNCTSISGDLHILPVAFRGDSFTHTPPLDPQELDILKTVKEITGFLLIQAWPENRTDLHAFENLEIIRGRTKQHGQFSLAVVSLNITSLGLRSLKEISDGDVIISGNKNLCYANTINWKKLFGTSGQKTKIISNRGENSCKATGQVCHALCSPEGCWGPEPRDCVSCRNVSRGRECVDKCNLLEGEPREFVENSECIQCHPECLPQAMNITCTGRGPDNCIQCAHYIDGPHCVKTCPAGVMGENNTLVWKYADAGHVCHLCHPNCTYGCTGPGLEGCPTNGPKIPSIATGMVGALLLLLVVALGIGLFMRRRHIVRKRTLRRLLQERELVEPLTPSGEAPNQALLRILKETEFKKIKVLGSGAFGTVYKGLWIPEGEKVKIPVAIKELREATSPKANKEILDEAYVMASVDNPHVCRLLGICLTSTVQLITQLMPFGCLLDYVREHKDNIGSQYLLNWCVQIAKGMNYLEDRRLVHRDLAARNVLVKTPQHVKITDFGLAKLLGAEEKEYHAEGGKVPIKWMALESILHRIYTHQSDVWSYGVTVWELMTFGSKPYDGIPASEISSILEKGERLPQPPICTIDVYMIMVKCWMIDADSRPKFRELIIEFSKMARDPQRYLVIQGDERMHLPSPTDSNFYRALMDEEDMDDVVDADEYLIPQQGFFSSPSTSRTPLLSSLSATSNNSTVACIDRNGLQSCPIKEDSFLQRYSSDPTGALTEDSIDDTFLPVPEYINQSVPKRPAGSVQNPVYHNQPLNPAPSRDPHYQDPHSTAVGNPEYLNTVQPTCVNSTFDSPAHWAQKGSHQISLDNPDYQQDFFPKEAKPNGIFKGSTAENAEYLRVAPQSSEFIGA

ERBB2/3 = ERBB2/3 (Homo sapiens, UniProt P04626+P21860); assay: ERBBprofiler barcoded split TEV assay, ERBB2/3
ERBB2/3 CRE = assay: ERBBprofiler barcoded CRE pathway sensor, ERBB2/3 co-transfected; conditions: Rattus norvegicus, PC-12, 6 h, read-out: ERBB2/3 CRE IC50
ERBB3 = conditions: read-out: IC50_Literature, ERBB3; cited from earlier work
ERBB2 [11] = conditions: read-out: IC50_Literature, ERBB2; cited from earlier work
ERBB4 [12] = biological target: T1, ERBB4 (Homo sapiens, UniProt Q15303); assay: Split TEV firefly luciferase assay, ERBB4; format: cell-based; conditions: agonist dose response, PC12 cells, split TEV, luciferase readout
T1 sequence (Q15303 26-1308): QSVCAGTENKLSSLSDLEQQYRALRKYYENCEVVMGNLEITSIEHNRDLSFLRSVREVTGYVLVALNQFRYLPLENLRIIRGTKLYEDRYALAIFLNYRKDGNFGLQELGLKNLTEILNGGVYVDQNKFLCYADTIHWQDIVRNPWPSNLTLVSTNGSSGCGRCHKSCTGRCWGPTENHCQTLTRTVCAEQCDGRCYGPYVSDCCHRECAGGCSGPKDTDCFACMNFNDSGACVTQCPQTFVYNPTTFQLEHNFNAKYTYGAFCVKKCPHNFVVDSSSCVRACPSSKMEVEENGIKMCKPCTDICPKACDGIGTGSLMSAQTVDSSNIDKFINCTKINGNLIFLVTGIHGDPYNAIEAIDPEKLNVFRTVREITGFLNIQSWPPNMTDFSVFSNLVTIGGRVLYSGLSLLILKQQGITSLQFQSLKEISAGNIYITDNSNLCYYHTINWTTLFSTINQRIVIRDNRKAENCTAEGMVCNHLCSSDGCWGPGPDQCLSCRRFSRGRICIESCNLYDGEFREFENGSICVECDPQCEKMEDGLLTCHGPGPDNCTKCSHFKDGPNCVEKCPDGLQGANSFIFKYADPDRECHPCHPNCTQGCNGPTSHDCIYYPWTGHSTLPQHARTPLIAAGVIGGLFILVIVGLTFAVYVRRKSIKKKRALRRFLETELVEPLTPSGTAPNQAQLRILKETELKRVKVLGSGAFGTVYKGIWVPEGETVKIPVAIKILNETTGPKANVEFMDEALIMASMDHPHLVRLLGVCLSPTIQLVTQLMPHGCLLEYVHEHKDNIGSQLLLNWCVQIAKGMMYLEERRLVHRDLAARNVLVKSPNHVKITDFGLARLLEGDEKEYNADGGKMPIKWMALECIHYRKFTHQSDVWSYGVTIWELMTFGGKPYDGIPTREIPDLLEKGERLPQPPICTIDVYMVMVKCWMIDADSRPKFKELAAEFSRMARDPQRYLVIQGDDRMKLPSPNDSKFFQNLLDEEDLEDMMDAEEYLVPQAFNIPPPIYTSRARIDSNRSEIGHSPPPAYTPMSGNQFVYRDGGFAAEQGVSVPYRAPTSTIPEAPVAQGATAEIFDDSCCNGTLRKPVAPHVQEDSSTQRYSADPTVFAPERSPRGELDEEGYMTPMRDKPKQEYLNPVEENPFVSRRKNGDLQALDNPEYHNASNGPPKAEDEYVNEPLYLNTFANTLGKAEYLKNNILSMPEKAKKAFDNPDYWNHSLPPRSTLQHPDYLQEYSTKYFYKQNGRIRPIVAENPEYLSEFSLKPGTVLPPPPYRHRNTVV
Method: as §1

ERBB4 [13] = biological target: T1, ERBB4; assay: ERBBprofiler barcoded split TEV assay, ERBB4; conditions: agonist dose response, PC12 cells, 6 h, split TEV, barcode readout

CRE sensor response at high compound concentration (barcoded) ([1]; 10 μM compound): upregulated CRE sensor response
Molecule: C[C@]12CCC(=O)C=C1C=C[C@@H]1[C@@H]2CC[C@@]2(C)[C@H]1CC[C@@]21CCC(=O)O1 [Canrenone]
inhibition of ERBB receptors and pathways (barcoded ERBBprofiler), in words [1]: did not inhibit any ERBB receptor nor pathway monitored

EC50 (NFAT (HTR2A)): 0.061 µM | EC50 (HTR2A CRE): 0.164 µM | EC50 (CRE (HTR2A)): 0.465 µM | EC50 (HTR2A NFAT; read-out: NFAT (HTR2A) activity EC50 (barcode), agonist dose response, PC12 cells, HTR2A co-transfected, barcode readout): 0.073 µM | EC50 [2]: 0.167 µM
Molecule: NCCc1c[nH]c2ccc(O)cc12 [Serotonin, Serotonin hydrochloride]

EGR1p activity EC50 (barcode) [5]: 0.089 ng/mL | EGR1p activity EC50 (luciferase) [6]: 0.161 ng/mL | EGR1p (ERBB4) activity EC50 (barcode) (ERBB4 EGR1p): 0.093 ng/mL
Molecule: hEGF

EGR1p (ERBB4) activity EC50 (luciferase) (EGR1p (ERBB4)): 0.384 ng/mL | EGR1p (ERBB4) activity EC50 (barcode) (ERBB4 EGR1p): 0.607 ng/mL
Molecule: Heregulin-β1 (EGF Domain) human (EGF-like domain) [EGFld]

ERBB4 activity EC50 (luciferase) (ERBB4 [12]): 0.700 ng/mL | ERBB2/3 EC50 (barcode) (ERBB2/3; agonist dose response, PC12 cells, 6 h, split TEV, barcode readout): 0.143 ng/mL | ERBB4 activity EC50 (barcode) (ERBB4 [13]): 1.372 ng/mL
B1: Heregulin-β1 (EGF Domain) human (EGF-like domain) (protein)
chain: TSHLVKCAEKEKTFCVNGGECFMVKDLSNPSRYLCKCPNEFTGDRCQNYVMASFYKHLGIEFMEAEELYQK
modifications: three disulfides
notes: EGF-like domain, ligand for ERBB3 and ERBB4

The next lines start with the molecule.

Molecule: C#Cc1cccc(Nc2ncnc3cc(OCCOC)c(OCCOC)cc23)c1 [Erlotinib, Erlotinib hydrochloride]
ERBB4 NFAT IC50 (ERBB4 NFAT): no effect (EGFR, ERBB2/3, ERBB4), 0.098 µM (HTR2A, small effect) | IC50 (ERBB4 [3]): […] | IC50 (ERBB4 EGR1p): 0.698 µM | IC50 (ERBB2 [4]): […] | IC50 (HTR2A NFAT): 0.098 µM | IC50 (ERBB2/3 EGR1p; Rattus norvegicus, PC-12, 6 h): 0.304 µM | IC50 (ERK (MAPK)): 0.16 to 0.29 µM

Molecule: C=CC(=O)Nc1cc(Nc2nccc(-c3cn(C)c4ccccc34)n2)c(OC)cc1N(C)CCN(C)C [Osimertinib, Osimertinib (AZD9291)]
EC50 (cAMP): 3.91 µM | IC50 (EGFR [7]): […] | effect on CRE sensor activity (luciferase), in words (CRE sensor; PC12 cells, CRE sensor only, stimulation mix): CRE sensor activation at high compound concentrations | EC50 (CRE sensor; Rattus norvegicus, PC-12): 3.01 µM | IC50 (HTR2A EGR1p; Rattus norvegicus, PC-12, 6 h): 0.109 µM | effect on calcium levels (Fluo-4 AM) (calcium): but not calcium levels | ERBB4 NFAT IC50 (ERBB4 NFAT): no effect (EGFR, ERBB2/3, ERBB4) - 0.772 µM (HTR2A) | IC50 (ERBB2 [8]): […] | EGFR NFAT IC50 (EGFR NFAT): no effect (EGFR, ERBB2/3, ERBB4) - 0.772 µM (HTR2A) | IC50 (ERBB4 [9]): […] | IC50 (ERBB4 EGR1p): 0.037 µM | IC50 (HTR2A NFAT): 0.772 µM | IC50 (ERBB2/3 EGR1p; Rattus norvegicus, PC-12, 6 h): 0.056 µM | IC50 (EGFR EGR1p; Rattus norvegicus, PC-12, 6 h): 0.08 µM

Molecule: CC(=O)S[C@@H]1CC2=CC(=O)CC[C@]2(C)[C@H]2CC[C@@]3(C)[C@@H](CC[C@@]34CCC(=O)O4)[C@H]12 [Spironolactone]
IC50 (EGFR CRE): 0.00841 µM | IC50 (EGFR [10]): > 10 µM | IC50 (ERBB2/3): > 10 µM | IC50 (ERBB4 EGR1p): > 10 µM | IC50 (ERBB2/3 CRE): 0.905 µM

Molecule: CS(=O)(=O)CCNCc1ccc(-c2ccc3ncnc(Nc4ccc(OCc5cccc(F)c5)c(Cl)c4)c3c2)o1 [Lapatinib, Lapatinib (GW-572016) Ditosylate]
IC50 (HTR2A EGR1p; Rattus norvegicus, PC-12, 6 h): 0.045 µM | IC50 (HTR2A EGR1p): 0.034 µM and 0.034 to 0.045 µM | IC50 (ERBB3): […] | ERBB4 NFAT IC50 (ERBB4 NFAT): no effect (EGFR, ERBB2/3, ERBB4), 0.352 - 4.531 µM (HTR2A) | EGFR NFAT IC50 (EGFR NFAT): no effect (EGFR, ERBB2/3, ERBB4), 0.352 - 4.531 µM (HTR2A) | IC50 (ERBB2/3 EGR1p; Rattus norvegicus, PC-12, 6 h): 0.041 µM | IC50 (ERBB2/3 EGR1p): 0.071 µM and 0.041 to 0.071 µM | IC50 (ERBB2 [11]): […] | IC50 (EGFR EGR1p; Rattus norvegicus, PC-12, 6 h): 0.244 µM | IC50 (EGFR EGR1p): 0.122 µM and 0.122 to 0.244 µM
